{
  "source": "ChEMBL document CHEMBL1649218",
  "about": "“New treatment option for second-stage African sleeping sickness: in vitro and in vivo efficacy of aza analogs of DB289” (Antimicrob Agents Chemother, 2009)",
  "key": {"[1]": {"test_system": "Trypanosoma brucei brucei", "experiment": "Antitrypanosomal activity against Trypanosoma brucei brucei GVR35 infected in NMRI mouse CNS model assessed as survival of mouse at 50 mg/kg, po for 5 days", "assay_type": "functional"}, "[2]": {"test_system": "Trypanosoma brucei brucei", "experiment": "Antitrypanosomal activity against Trypanosoma brucei brucei GVR35 infected in NMRI mouse CNS model assessed as survival of mouse at 25 mg/kg, po for 5 days", "assay_type": "functional"}, "[3]": {"test_system": "Trypanosoma brucei rhodesiense", "experiment": "Antitrypanosomal activity against wild-type Trypanosoma brucei rhodesiense STIB900 infected in NMRI mouse assessed as cure from infection at 2.5 mg/kg, po for 4 days", "assay_type": "functional, organism-based", "parameters": "dose 2.5 mg/kg"}, "[4]": {"test_system": "Trypanosoma brucei brucei", "experiment": "Antitrypanosomal activity against Trypanosoma brucei brucei GVR35 infected in NMRI mouse CNS model assessed as cure from infection at 10 mg/kg, po for 10 days", "assay_type": "functional, organism-based", "parameters": "dose 10 mg/kg"}, "[5]": {"test_system": "Trypanosoma brucei brucei", "experiment": "Antitrypanosomal activity against Trypanosoma brucei brucei GVR35 infected in NMRI mouse CNS model assessed as cure from infection at 100 mg/kg, po for 5 days", "assay_type": "functional, organism-based", "parameters": "dose 100 mg/kg"}, "[6]": {"test_system": "Trypanosoma brucei rhodesiense", "experiment": "Antitrypanosomal activity against wild-type Trypanosoma brucei rhodesiense STIB900 infected in NMRI mouse assessed as survival of mouse at 5 mg/kg, po for 4 days", "assay_type": "functional"}, "[7]": {"test_system": "Trypanosoma brucei rhodesiense", "experiment": "Antitrypanosomal activity against wild-type Trypanosoma brucei rhodesiense STIB900 infected in NMRI mouse assessed as survival of mouse at 25 mg/kg, po for 4 days", "assay_type": "functional"}, "[8]": {"test_system": "Trypanosoma brucei rhodesiense", "experiment": "Antitrypanosomal activity against wild-type Trypanosoma brucei rhodesiense STIB900 infected in NMRI mouse assessed as survival of mouse at 2.5 mg/kg, po for 4 days", "assay_type": "functional"}, "[9]": {"test_system": "Trypanosoma brucei brucei", "experiment": "Antitrypanosomal activity against Trypanosoma brucei brucei GVR35 infected in NMRI mouse CNS model assessed as survival of mouse at 100 mg/kg, po for 5 days", "assay_type": "functional"}, "[10]": {"test_system": "Trypanosoma brucei brucei", "experiment": "Antitrypanosomal activity against Trypanosoma brucei brucei GVR35 infected in NMRI mouse CNS model assessed as survival of mouse at 50mg/kg, po for 10 days", "assay_type": "functional"}, "[11]": {"test_system": "Trypanosoma brucei rhodesiense", "experiment": "Antitrypanosomal activity against wild-type Trypanosoma brucei rhodesiense STIB900 infected in NMRI mouse assessed as cure from infection at 25 mg/kg, po for 4 days", "assay_type": "functional, organism-based", "parameters": "dose 25 mg/kg"}, "[12]": {"test_system": "Trypanosoma brucei brucei", "experiment": "Antitrypanosomal activity against Trypanosoma brucei brucei GVR35 infected in NMRI mouse CNS model assessed as survival of mouse at 25 mg/kg, po for 10 days", "assay_type": "functional"}, "[13]": {"test_system": "Trypanosoma brucei brucei", "experiment": "Antitrypanosomal activity against Trypanosoma brucei brucei GVR35 infected in NMRI mouse CNS model assessed as survival of mouse at 75 mg/kg, po for 5 days", "assay_type": "functional"}, "[14]": {"test_system": "Trypanosoma brucei brucei", "experiment": "Antitrypanosomal activity against Trypanosoma brucei brucei GVR35 infected in NMRI mouse CNS model assessed as survival of mouse at 10 mg/kg, po for 10 days", "assay_type": "functional"}, "[15]": {"test_system": "Trypanosoma brucei brucei", "experiment": "Antitrypanosomal activity against Trypanosoma brucei brucei GVR35 infected in NMRI mouse CNS model assessed as survival of mouse at 20 mg/kg, ip for 5 days", "assay_type": "functional", "conditions": "route intraperitoneal"}, "[16]": {"experiment": "Ratio of IC50 for Trypanosoma brucei gambiense STIB930 to IC50 for wild-type Trypanosoma brucei rhodesiense […]", "assay_type": "functional"}, "[17]": {"test_system": "Trypanosoma brucei rhodesiense", "experiment": "Antitrypanosomal activity against wild-type Trypanosoma brucei rhodesiense STIB900 infected in NMRI mouse assessed as survival of mouse at 0.5 mg/kg, ip for 4 days", "assay_type": "functional", "conditions": "route intraperitoneal"}, "[18]": {"test_system": "Trypanosoma brucei brucei", "experiment": "Antitrypanosomal activity against Trypanosoma brucei brucei GVR35 infected in NMRI mouse CNS model assessed as cure from infection at 20 mg/kg, ip for 10 days", "assay_type": "functional, organism-based", "parameters": "dose 20 mg/kg"}, "[19]": {"test_system": "Trypanosoma brucei gambiense", "experiment": "Antitrypanosomal activity against Trypanosoma brucei gambiense ITMAP141267 by Alamar blue assay", "assay_type": "functional, organism-based"}, "[20]": {"test_system": "Trypanosoma brucei gambiense", "experiment": "Ratio of IC50 for Trypanosoma brucei gambiense K03048 to IC50 for Trypanosoma brucei gambiense STIB930", "assay_type": "functional"}, "[21]": {"test_system": "Trypanosoma brucei gambiense", "experiment": "Antitrypanosomal activity against Trypanosoma brucei gambiense STIB930 by Alamar blue assay", "assay_type": "functional, organism-based"}, "[22]": {"test_system": "Trypanosoma brucei rhodesiense", "experiment": "Antitrypanosomal activity against wild-type Trypanosoma brucei rhodesiense STIB900 infected in NMRI mouse assessed as survival of mouse at 20 mg/kg, ip for 4 days", "assay_type": "functional", "conditions": "route intraperitoneal"}, "[23]": {"test_system": "Trypanosoma brucei rhodesiense", "experiment": "Ratio of IC50 for melasoprol-resistant Trypanosoma brucei rhodesiense STIB900 to IC50 for wild-type Trypanosoma brucei rhodesiense […]", "assay_type": "functional"}, "[24]": {"test_system": "Trypanosoma brucei brucei", "experiment": "Ratio of IC50 for Trypanosoma brucei brucei AT1KO to IC50 for Trypanosoma brucei brucei BS221", "assay_type": "functional"}, "[25]": {"experiment": "Ratio of IC50 for Trypanosoma brucei gambiense ITMAP141267 to IC50 for wild-type Trypanosoma brucei rhodesiense […]", "assay_type": "functional"}, "[26]": {"experiment": "Ratio of IC50 for Trypanosoma brucei gambiense K03048 to IC50 for wild-type Trypanosoma brucei rhodesiense STIB900", "assay_type": "functional"}, "[27]": {"test_system": "Trypanosoma brucei gambiense", "experiment": "Antitrypanosomal activity against Trypanosoma brucei gambiense K03048 by Alamar blue assay", "assay_type": "functional, organism-based"}, "[28]": {"test_system": "Trypanosoma brucei brucei", "experiment": "Antitrypanosomal activity against Trypanosoma brucei brucei GVR35 infected in NMRI mouse CNS model assessed as survival of mouse at 10 mg/kg, ip for 10 days", "assay_type": "functional", "conditions": "route intraperitoneal"}, "[29]": {"test_system": "Trypanosoma brucei brucei", "experiment": "Antitrypanosomal activity against Trypanosoma brucei brucei BS221 by Alamar blue assay", "assay_type": "functional, organism-based"}, "[30]": {"test_system": "Trypanosoma brucei brucei", "experiment": "Antitrypanosomal activity against Trypanosoma brucei brucei AT1KO by Alamar blue assay", "assay_type": "functional, organism-based"}, "[31]": {"test_system": "Trypanosoma brucei brucei", "experiment": "Antitrypanosomal activity against Trypanosoma brucei brucei GVR35 infected in NMRI mouse CNS model assessed as survival of mouse at 20 mg/kg, ip for 10 days", "assay_type": "functional", "conditions": "route intraperitoneal"}, "[32]": {"test_system": "Trypanosoma brucei rhodesiense", "experiment": "Ratio of IC50 for pentamidine-resistant Trypanosoma brucei rhodesiense STIB900 to IC50 for wild-type Trypanosoma brucei rhodesiense STIB900", "assay_type": "functional"}, "[33]": {"test_system": "Trypanosoma brucei rhodesiense", "experiment": "Antitrypanosomal activity against melasoprol-resistant Trypanosoma brucei rhodesiense STIB900 by Alamar blue assay", "assay_type": "functional, organism-based"}, "[34]": {"test_system": "Trypanosoma brucei rhodesiense", "experiment": "Antitrypanosomal activity against pentamidine-resistant Trypanosoma brucei rhodesiense STIB900 by Alamar blue assay", "assay_type": "functional, organism-based"}, "[35]": {"test_system": "Trypanosoma brucei brucei", "experiment": "Antitrypanosomal activity against Trypanosoma brucei brucei GVR35 infected in NMRI mouse CNS model assessed as cure from infection at 10 mg/kg, ip for 10 days", "assay_type": "functional, organism-based", "parameters": "dose 10 mg/kg"}, "[36]": {"test_system": "Trypanosoma brucei rhodesiense", "experiment": "Antitrypanosomal activity against wild-type Trypanosoma brucei rhodesiense STIB900 infected in NMRI mouse assessed as cure from infection at 10 mg/kg, ip for 4 days", "assay_type": "functional, organism-based", "parameters": "dose 10 mg/kg"}, "[37]": {"test_system": "Trypanosoma brucei rhodesiense", "experiment": "Antitrypanosomal activity against wild-type Trypanosoma brucei rhodesiense STIB900 infected in NMRI mouse assessed as cure from infection at 20 mg/kg, ip for 4 days", "assay_type": "functional, organism-based", "parameters": "dose 20 mg/kg"}},
  "note": "The source made the active and inactive calls. No cut-off for these calls is given here.",
  "data": [
    {"compound": "CO/N=C(\\N)c1ccc(-c2ccc(-c3ccc(/C(N)=N/OC)cn3)o2)cc1", "values": [
      {"measurement": "MSD", "setting": "[1]", "result": ">176.6", "unit": "days"},
      {"measurement": "MSD", "setting": "[2]", "result": 117.6, "unit": "days"},
      {"measurement": "Activity", "setting": "[3]", "result": "inactive"},
      {"measurement": "Activity", "setting": "[4]", "result": "inactive"},
      {"measurement": "Activity", "setting": "[5]", "result": "Active"},
      {"measurement": "MSD", "setting": "[6]", "result": ">50.25", "unit": "days"},
      {"measurement": "MSD", "setting": "[7]", "result": ">60", "unit": "days"},
      {"measurement": "MSD", "setting": "[8]", "result": 19.5, "unit": "days"},
      {"measurement": "MSD", "setting": "[9]", "result": ">180", "unit": "days"},
      {"measurement": "MSD", "setting": "[10]", "result": ">180", "unit": "days"},
      {"measurement": "Activity", "setting": "[11]", "result": "Active"},
      {"measurement": "MSD", "setting": "[12]", "result": ">149.6", "unit": "days"},
      {"measurement": "MSD", "setting": "[13]", "result": ">172", "unit": "days"},
      {"measurement": "MSD", "setting": "[14]", "result": 75.25, "unit": "days"}
    ]},
    {"compound": "N=C(N)c1ccc(-c2ccc(-c3ccc(C(=N)N)cn3)o2)nc1", "values": [
      {"measurement": "MSD", "setting": "[15]", "result": ">132.3", "unit": "days"},
      {"measurement": "Ratio IC50", "setting": "[16]", "result": 5.4},
      {"measurement": "MSD", "setting": "[17]", "result": ">31", "unit": "days"},
      {"measurement": "Activity", "setting": "[18]", "result": "Active"},
      {"measurement": "IC50", "setting": "[19]", "result": 0.0162, "unit": "µg/mL"},
      {"measurement": "Ratio IC50", "setting": "[20]", "result": 14},
      {"measurement": "IC50", "setting": "[21]", "result": 0.0351, "unit": "µg/mL"},
      {"measurement": "MSD", "setting": "[22]", "result": ">60", "unit": "days"},
      {"measurement": "Ratio IC50", "setting": "[23]", "result": 10},
      {"measurement": "Ratio IC50", "setting": "[24]", "result": 17.8},
      {"measurement": "Ratio IC50", "setting": "[25]", "result": 2.5},
      {"measurement": "Ratio IC50", "setting": "[26]", "result": 6.1},
      {"measurement": "IC50", "setting": "[27]", "result": 0.0395, "unit": "µg/mL"},
      {"measurement": "MSD", "setting": "[28]", "result": 95.6, "unit": "days"},
      {"measurement": "IC50", "setting": "[29]", "result": 0.006, "unit": "µg/mL"},
      {"measurement": "IC50", "setting": "[30]", "result": 0.106, "unit": "µg/mL"},
      {"measurement": "MSD", "setting": "[31]", "result": ">180", "unit": "days"},
      {"measurement": "Ratio IC50", "setting": "[32]", "result": 10.5},
      {"measurement": "IC50", "setting": "[33]", "result": 0.0643, "unit": "µg/mL"},
      {"measurement": "IC50", "setting": "[34]", "result": 0.0679, "unit": "µg/mL"},
      {"measurement": "Activity", "setting": "[35]", "result": "inactive"},
      {"measurement": "Activity", "setting": "[36]", "result": "Active"},
      {"measurement": "Activity", "setting": "[37]", "result": "Active"}
    ]},
    {"compound": "CO/N=C(\\N)c1ccc(-c2ccc(-c3ccc(/C(N)=N\\O)cn3)o2)cc1", "values": [
      {"measurement": "MSD", "setting": "[1]", "result": ">157.2", "unit": "days"},
      {"measurement": "Activity", "setting": "[5]", "result": "Active"},
      {"measurement": "MSD", "setting": "[6]", "result": ">39.5", "unit": "days"},
      {"measurement": "MSD", "setting": "[7]", "result": ">60", "unit": "days"},
      {"measurement": "MSD", "setting": "[9]", "result": ">180", "unit": "days"},
      {"measurement": "Activity", "setting": "[11]", "result": "Active"},
      {"measurement": "MSD", "setting": "[13]", "result": ">164.8", "unit": "days"}
    ]}
  ]
}
